# Results reported in patent US20130236966A1, “NK-1 Receptor Mediated Delivery of Agents to Cells” (THE UNIVERSITY OF CHICAGO, priority 2007, published 2013).
# Ends that are not written are not given here. Alexa555 = Alexa Fluor 555 thiol-reactive fluorophore
# Experiments:
# [1] = test system: HeLa cells transfected with the NK-1 receptor; experiment: delivery of a polynucleotide encoding GFP; format: cell-based, human; conditions: 200 pM, FIG. 7
# Procedure: (§1) NK-1 receptor transfection: A plasmid coding for the human NK-1 receptor in the mammalian expression vector pCDNA3(+) (provided by Dr. Robert Lefkowitz, Duke University) was transfected into HeLa cells using Lipofectamine 2000 according to manufacturer protocol, with 1 ng of the plasmid for each well containing 10^4 HeLa cells seeded on an 18 mm cover-slip in a 12-well plate.
# To determine if other types of agents could also be delivered to cells expressing NK-1 receptors in accordance with the invention, HeLa cells transfected with the NK-1 receptor as described above, were incubated with an SP-polynucleotide conjugate. The polynucleotide encoded GFP operably linked to a promoter functional in the cells. The polynucleotide was also fluorescently tagged with Alexa-647 such that delivery of the polynucleotide into the cell could be monitored as well as expression of GFP.
# [2] = test system: HeLa cells transfected with a plasmid coding for the NK-1 receptor; experiment: confocal microscopy of NK-1 receptor-mediated internalization in transfected HeLa cells; format: cell-based, human
# Procedure: as §1
# (§2) Confocal Microscopy: For each sample, 10^4 U87 cells were seeded on an 18 mm cover-slip in MEM with 10% FBS overnight in a 12-well plate, then starved in MEM with 0.1% BSA for 3 hrs. The reagent (SP-sAB conjugate, SP-Fluorophore or sAB only) was filter-sterilized, diluted to the desired final concentration in MEM 0.1% BSA and added directly to the live cells in each well for 2 hrs. Untreated cells served as a negative control. Following incubation with the reagent, the cells were washed with PBS and fixed in 4% p-formaldehyde. The cells were permeablized in TBS-Tween and blocked with 10% Normal Goat Serum for 1 hr. Actin filaments were stained with FITC-phalloidin (1:250 dilution), or TRITC-phalloidin (1:3000 dilution) for 1 hr at room temperature. Nuclei were stained with DAPI (10 μg/mL) or Hoechst reagent (Invitrogen, 1:2000) for 5 minutes at room temperature. Samples were mounted using ProLong Gold reagent (Invitrogen). Confocal microscopy images were collected using a Leica SP2 with Alexa 488, Alexa 555 or Cy3 and Alexa 574 or Cy5 excited with the 488 nm laser, the 543 nm laser and the 633 laser, respectively. Multicolored images were overlaid using the imageJ software.
# The ability to specifically deliver functional biomolecular agents to living cells can be a powerful research tool for studying molecular processes. Introduction of the NK-1 receptor is sufficient for the uptake of fluorescently-labeled SP. […] HeLa cells transfected with a plasmid coding for the NK-1 receptor were incubated for 2 hours with 20 nM fluorescently-labeled SP. The cells were then stained with phalloidin for visualization of actin structure.
# U87 glioblastoma cells [3] = experiment: MTS proliferation / cell viability assay; format: cell-based, human; conditions: 10 nM or 20 nM, 48 hrs, FIG. 5a
# Procedure: MTS proliferation assay: U87 cells were seeded in 96-well plates at density 5000 cells/well in 0.1 mL of growth media. Cells were attached overnight and starved for 3 hours. Cells were stimulated with 20 nM sAB27-SP conjugate for 3, 5, 9, 24 and 48 hours, and SP or sAB27 alone for 48 hours in starving media. 20 μL of the MTS-based CellTiter 96 Aqueous One Solution reagent was added to each well. The plate was incubated in a humidified, 5% CO2 atmosphere until color was developed and the absorbance was recorded at 490 nm.
# Due to the actin-bundling activity of sAB-27, its effect on the viability of U87 glioblastoma cells following SP-mediated delivery was investigated. Live U87 cells were treated with either 10 nM or 20 nM of the SP-sAB-27 conjugate and a cell viability assay was carried out at different time points up to 48 hrs after treatment. The viability of cells incubated with the conjugates was compared with that of cells treated with SP alone or sAB-27 alone, as well as untreated cells.
# U87 glioblastoma cells [4] = experiment: confocal microscopy of internalization in U87 glioblastoma cells; format: cell-based, human; conditions: FIG. 3b
# Procedure: (§3) Cell lines: U87 human glioblastoma-astrocytoma epithelial-like cells (provided by Prof. Maciej S. Lesniak, University of Chicago Medical Center) were cultured in MEM with penicillin/streptomycin and 10% FBS. Normal human astrocytes (NHA) were purchased from Lonza and cultured in astrocyte growth media (Lonza) supplemented with rhEGF; Insulin, Ascorbic Acid, GA-1000, L-Glutamine and 5% FBS. HeLa cells (provided by Dr. Ronald Rock, University of Chicago) were grown in DMEM pencillin/streptomycin and with 10% FBS.
# as §2, with “Samples were mounted using ProLong Gold reagent (Invitrogen). Confocal microscopy images were collected using a Leica SP2 with Alexa 488, Alexa 555 or Cy3 and Alexa 574 or Cy5 excited with the 488 nm laser, the 543 nm laser and the 633 laser, respectively. Multicolored images were overlaid using the imageJ software.” left out
# [5] = test system: normal human astrocytes (NHA); experiment: confocal microscopy of internalization in normal human astrocytes; format: cell-based; conditions: FIG. 3c
# Procedure: as §3
# as §2, with “Samples were mounted using ProLong Gold reagent (Invitrogen). Confocal microscopy images were collected using a Leica SP2 with Alexa 488, Alexa 555 or Cy3 and Alexa 574 or Cy5 excited with the 488 nm laser, the 543 nm laser and the 633 laser, respectively. Multicolored images were overlaid using the imageJ software.” left out
substance,measurement,setting,value
"SP-polynucleotide conjugate: SP conjugated to an Alexa-647 tagged polynucleotide encoding GFP operably linked to a promoter (RPKPQQFFGLM; ends and bridges not checked; also: conjugated to Alexa-647 tagged GFP-encoding polynucleotide, site not given here; UniProt P20366 58-68, looked up)",internalization of the Alexa-647 tagged polynucleotide,[1]; 2 hours,internalized after 2 hours
same,localization of the internalized polynucleotide,[1]; 2 hours,at least a portion co-localized with the nucleus of the cell
same,expression of GFP,"[1]; 24 hours, confocal microscopy",expression of GFP after 24 hours
"SP: 11-amino acid peptide that is rapidly internalized upon binding to the NK-1 receptor; used alone as control (RPKPQQFFGLM; ends and bridges not checked; UniProt P20366 58-68, looked up)",localization with actin / effect on actin structure,"[2]; 20 nM, phalloidin staining, FIG. 2",no specific localization with actin and no apparent effect on the structure of the actin filaments
same,cell viability,U87 glioblastoma cells [3],no effect on viability
SP-Alexa555: variant of SP with a cysteine at position 3 carrying a thiol-reactive fluorophore; positive control for NK-1 receptor-mediated internalization (RPC(Alexa555)PQQFFGLM; ends and bridges not checked),internalization by transfected cells,"[2]; 20 nM, 2 hours, confocal microscopy",rapid internalization
same,effect on actin structure,"[2]; 100 nM, FITC-phalloidin, FIG. 2a,b",actin structure is unaffected
same,internalization by U87 cells,U87 glioblastoma cells [4]; 100 nM (figure legend),internalization
same,internalization by U87 cells,"U87 glioblastoma cells [4]; 200 nM, 2 hr",readily internalize
same,internalization by NHA,[5]; 100 nM (figure legend),no internalization was observed
same,internalization by normal astrocytes,"[5]; 200 nM, 2 hr",undetectable
